“Also recorded” adds a separate entry of the source. Read-outs that look alike come from different tables or passages of the source.
Experiments:
Calu-1 tumors = assay: Antitumor activity, Calu-1 xenograft in nude mice; format: in vivo; conditions: 1 mg/kg/day i.p.
From the text: Antitumor Activity in the Nude Mouse Tumor Xenograft Model. Nude mice and C57 BL-6 black mice (National Cancer Institute, Bethesda, Md.) were maintained in accordance with the Institutional Animal Care and Use Committee (IACUC) procedures and guidelines. v-Src- and oncogenic H-Ras-transformed NIH 3T3, A549, MDA-MB-468 and Calu-1 cells were harvested, resuspended in PBS and injected s.c. into the right and left flank (10×10^6 cells per flank) of 8 week old female nude mice as reported previously (Sun, J. et al. Cancer Res., 1999, 59:4919-4926). Similarly, murine B16-F10 Melanoma cells were injected s.c. into the right and left flank (10^6 cells per flank) of C57 black mice. When tumors reached about 150 mm^3, animals were randomized (five animals per group; two tumors per animal) and dosed i.p. with 0.2 ml once daily. Control animals received DMSO (20%) vehicle whereas treated animals were injected with JSI-124 (1 mg/kg/day) in 20% DMSO in water. The tumor volumes were determined by measuring the length (l) and the width (w) and calculating the volume (V=1w^2/2) as described previously (Sun, J. et al. Cancer Res., 1999, 59:4919-4926). Statistical significance between control and treated animals were evaluated by using Student's t-test. […] Percent surviving mice was determined by monitoring the death of mice until all mice died. […]

phosphotyrosine Src = assay: Western blotting for phosphotyrosine Src; format: cell-based, human; conditions: A549 and MDA-MB-468 cells, various concentrations, 4 hr
Description: (§1) Western Blotting. Treated cell samples were lysed in 30 mM Hepes, pH 7.5, 10 mM NaCl, 5 mM MgCl2, 25 mM NaF, 1 mM EGTA, 1% Triton-X-100, 10% glycerol, 2 mM sodium orthovanadate, 10 μg/ml aprotinin, 10 μg/ml soybean trypsin inhibitor, 25 μg/ml leupeptin, 2 mM PMSF, and 6.4 mg/ml p-nitrophenylphosphate. Phospho-STAT3, phospho-AKT, phospho-MEK, and phospho-p42/p44 MAPK antibodies were obtained from Cell Signaling Technologies, Cambridge, Mass. Antibodies to STAT3, JAK2, and phospho-INK were purchased from Santa Cruz Biotechnology, Santa Cruz, Calif. Phospho-JAK2 antibody came from Upstate Biotechnology, Lake Placid, N.Y. Membranes were blocked in either 5% milk in PBS, pH 7.4, containing 0.1% Tween-20 (PBS-T) or 1% BSA in TBS, pH 7.5, containing 0.1% Tween-20 (TBS-T). Phospho-specific antibodies (excepting P-MAPK and P-JNK) were incubated in 1% BSA in TBS-T while all other antibodies were diluted in 5% milk in PBS-T for either 2 hr at room temperature or overnight at 4° C. HRP-conjugated secondary antibodies (Jackson ImmunoResearch) were diluted in 5% milk in either PBS-T or TBS-T at 1:1000 dilution for one hour at room temperature. Western blots were visualized using enhanced chemiluminescence as described previously (Blaskovich, M. A. et al. Nat. Biotechnol., 2000, 18:1065-1070).

phosphotyrosine STAT3 = assay: Western blotting for phosphotyrosine STAT3 in cancer cell lines; format: cell-based, human
Description: as §1
Immunoprecipitation of STAT3. A549 cells were treated for 4 hr with vehicle or JSI-124, then lysed in 150 mM Hepes, pH 7.5, 150 mM NaCl, 1 mM EDTA, 0.5% Nonidet P-40 (NP-40), 10% glycerol, 5 mM NaF, 1 mM DTT, 1 mM PMSF, 2 mM sodium orthovanadate, and 5 μg/ml leupeptin. Sample lysates were collected and cleared, then 500 μg of lysate was immunoprecipitated with 50 ng STAT3 antibody overnight at 4° C. then rocked with 25 μl Protein A/G PLUS agarose (Santa Cruz Biotechnology) for 1 hr at 4° C. Samples were washed four times with lysis buffer then boiled in 2×SDS-PAGE sample buffer and run on 10% SDS-PAGE gel. Protein was transferred to nitrocellulose and then blotted as above for both phospho-specific STAT3 and STAT3.

v-Src/NIH 3T3 tumors = assay: Antitumor activity, v-Src-transformed NIH 3T3 tumors in nude mice; format: in vivo
From the text: Antitumor Activity in the Nude Mouse Tumor Xenograft Model. Nude mice and C57 BL-6 black mice (National Cancer Institute, Bethesda, Md.) were maintained in accordance with the Institutional Animal Care and Use Committee (IACUC) procedures and guidelines. v-Src- and oncogenic H-Ras-transformed NIH 3T3, A549, MDA-MB-468 and Calu-1 cells were harvested, resuspended in PBS and injected s.c. into the right and left flank (10×10^6 cells per flank) of 8 week old female nude mice as reported previously (Sun, J. et al. Cancer Res., 1999, 59:4919-4926). Similarly, murine B16-F10 Melanoma cells were injected s.c. into the right and left flank (10^6 cells per flank) of C57 black mice. […] […] The tumor volumes were determined by measuring the length (l) and the width (w) and calculating the volume (V=1w^2/2) as described previously (Sun, J. et al. Cancer Res., 1999, 59:4919-4926). Statistical significance between control and treated animals were evaluated by using Student's t-test. For the mouse survival experiments, C57 BL-6 black mice were implanted s.c. with B16-F10 cells (10^5 to 10^6 cells per flank). […] Percent surviving mice was determined by monitoring the death of mice until all mice died. Two experiments of 12 animals each (6 control and 6 treated with JSI-124) were carried out. For statistical analysis: for each of the two experiments, mice receiving JSI-124 were compared to those receiving vehicle control with respect to survival using the permutation log rank test as implemented in the statistical software package, ProcStatXact (p-values are two sided and exact).

CC(C)(O)/C=C/C(=O)[C@](C)(O)[C@H]1[C@H](O)C[C@@]2(C)[C@@H]3CC=C4[C@@H](C=C(O)C(=O)C4(C)C)[C@]3(C)C(=O)C[C@]12C [JSI-124, cucurbitacin I]
effect on growth of Calu-1 tumors (Calu-1 tumors): little effect | levels of tyrosine phosphorylated Src (phosphotyrosine Src): not those of tyrosine phosphorylated Src | levels of tyrosine phosphorylated STAT3 (Western blot) (phosphotyrosine STAT3; 10 μM, 4 hr, A549, MDA-MB-468, MDA-MB-231, Panc-1 and v-Src NIH 3T3 cells): very effective at reducing the levels of tyrosine phosphorylated STAT3 | phosphotyrosine STAT3 levels after STAT3 immunoprecipitation (phosphotyrosine STAT3; 10 μM, 4 hr, A549 and MDA-MB-468 cells): reduced phosphotyrosine STAT3 to barely detectable levels | levels of tyrosine phosphorylated STAT3, various concentrations (phosphotyrosine STAT3; A549 and MDA-MB-468 cells, 0-10 μM, 4 hr): reduction of the levels of tyrosine phosphorylated STAT3; also recorded: suppression of phospho-STAT3 levels in both cell lines | inhibition of phospho STAT3 levels (in words) (phosphotyrosine STAT3; A-549 cells, 0-10 μM): inhibits both phospho STAT3 and phospho JAK2 levels | IC50 (phosphotyrosine STAT3; A-549 cells, Western blotting, read-out: IC50 for phospho-STAT3): 200 nM | IC50 (phosphotyrosine STAT3; read-out: IC50 as suppressor of the JAK/STAT3 tumor survival pathway): 200 nM | inhibition of growth of v-src transformed NIH 3T3 tumors (in words) (v-Src/NIH 3T3 tumors; 1 mg/Kg/day intraperitoneally): inhibits tumor growth | inhibition of growth of v-Src/NIH 3T3 tumors (v-Src/NIH 3T3 tumors; 1 mg/kg/day i.p.): 64%

— patent US8691799B2, “Materials and methods for treatment of cancer and identification of anti-cancer compounds” (priority 2001, dated 2014)
